Experimental data as given in article PMC4992173, “Divergent synthesis and identification of the cellular targets of deoxyelephantopins” (Nature Communications, 2016).

Target: T1, PPARγ (Homo sapiens, UniProt P37231)
T1 sequence (P37231 1-505): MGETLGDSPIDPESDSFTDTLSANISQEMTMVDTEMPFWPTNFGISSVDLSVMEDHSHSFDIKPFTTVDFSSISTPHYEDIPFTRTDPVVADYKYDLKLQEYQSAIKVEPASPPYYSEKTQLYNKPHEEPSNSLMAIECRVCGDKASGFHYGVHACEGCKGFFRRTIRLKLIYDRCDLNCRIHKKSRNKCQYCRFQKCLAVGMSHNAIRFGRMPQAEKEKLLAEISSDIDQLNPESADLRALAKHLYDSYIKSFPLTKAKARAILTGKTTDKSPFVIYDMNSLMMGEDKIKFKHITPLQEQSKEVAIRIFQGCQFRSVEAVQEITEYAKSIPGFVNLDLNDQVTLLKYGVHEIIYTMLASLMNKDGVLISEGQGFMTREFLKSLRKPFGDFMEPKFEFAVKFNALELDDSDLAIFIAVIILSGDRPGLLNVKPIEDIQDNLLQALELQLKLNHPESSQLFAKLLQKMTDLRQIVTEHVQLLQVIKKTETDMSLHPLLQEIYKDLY
Assay: Detection of a covalent adduct on human PPARγ (LC-MS/MS)
Assay type: binding
Set-up: purchased Cayman Chemical
Conditions: 100 μM, 1 h, tryptic digest LC-MS/MS
Excerpt: Finally, we sought to understand the molecular basis for PPARγ binding by the synthetic analogues of deoxyelephantopin through identification of the precise covalently modified amino acid site. There is literature precedent for oxidized fatty acids containing an α,β-unsaturated ketone to form a covalent bond with a cysteine in the ligand-binding site of PPARγ[53]. More recently, synthetic ligands binding reversibly to a distinct site were identified. […] Bearing in mind that the structurally simplified, and thus less prone to MS/MS fragmentation, probe 23c binds PPARγ as efficiently as 24c (Supplementary Fig. 13), we treated the recombinant nuclear receptor with the former compound, digested the protein and analysed the resulting peptides by LC–MS/MS. […]
Recombinant human PPARγ (500 ng in 9 μl PBS) was treated with 100 μM of 23c (1 μl of 10 × stock in DMSO) or DMSO for 1 h. […] Samples were resuspended in 0.1% FA in water and analysed by LC–MS/MS. The theoretical mass of the 23c adduct was calculated and LC–MS/MS was run with an inclusion list containing m/z and charge of the expected peptides. MS data were analysed in MaxQuant with 23c (+256.1099 Da) and carbamidomethylation as variable modifications on cysteine. […]

C#CCC[C@H](O)[C@H]1C(=C)C(=O)O[C@@H]1c1ccccc1 [23c]
protein site covalently modified: Cys190
